From paper PMC7181131, “N-Pyrazinoyl Substituted Amino Acids as Potential Antimycobacterial Agents—the Synthesis and Biological Evaluation of Enantiomers” (Molecules, 2020)
Values after ≈ are worked out from the molar mass of the structure shown. Like-named read-outs stand apart in the source and are kept apart here.

Tests used:
[1] = tested on: Mtb H37Ra ITM-M006710 (ATCC 9431); assay: Microplate Alamar Blue Assay (MABA) microdilution, Mtb H37Ra; type: cell-based, Mycobacterium tuberculosis; conditions: for MIC: Mycobacterium tuberculosis
[2] = tested on: M. smegmatis DSM 43465 (ATCC 607); assay: Microplate Alamar Blue Assay (MABA) microdilution, M. smegmatis; type: cell-based, Mycobacterium smegmatis
[3] = tested on: Mycobacterium aurum DSM 43999 (ATCC 23366); assay: Microplate Alamar Blue Assay (MABA) microdilution, M. aurum; type: cell-based
[4] = tested on: Staphylococcus epidermidis CCM 4418 (ATCC 12228); assay: Antibacterial microdilution broth method, SE; type: cell-based; conditions: 24 h, read-out: MIC SE
[5] = tested on: Candida albicans CCM 8320 (ATCC 24433); assay: Antifungal microdilution broth method, CA; type: cell-based; conditions: 24 h, read-out: MIC CA
[6] = tested on: Candida krusei CCM 8271 (ATCC 6258); assay: Antifungal microdilution broth method, CK; type: cell-based; conditions: Pichia kudriavzevii, 24 h, read-out: MIC CK
[7] = tested on: Candida parapsilosis CCM 8260 (ATCC 22019); assay: Antifungal microdilution broth method, CP; type: cell-based; conditions: Lodderomyces parapsilosis, 24 h, read-out: MIC CP
[8] = tested on: Candida tropicalis CCM 8264 (ATCC 750); assay: Antifungal microdilution broth method, CT; type: cell-based; conditions: 24 h, read-out: MIC CT
[9] = tested on: Aspergillus fumigatus ATCC 204305; assay: Antifungal microdilution broth method, AF; type: cell-based; conditions: ATCC204305, 48 h, read-out: MIC AF
[10] = tested on: Aspergillus flavus CCM 8363; assay: Antifungal microdilution broth method, AFla; type: cell-based; conditions: CCM8363, read after 48 h (filamentous fungi), read-out: MIC AFla
Method: 6. In vitro antifungal activity screening
Antifungal activity evaluation was performed using a microdilution broth method according to EUCAST instructions (The European Committee on Antimicrobial Susceptibility Testing) with slight modifications. Eight fungal strains (four yeast and four mould strains) were used for antifungal […]
and Trichophyton interdigitale CCM 8377 (ATCC 9533). Tested strains were purchased from the Czech Collection of Microorganisms (CCM, Brno, Czech Republic) or from the American Type Collection Cultures (ATCC, Manassas, VA, USA). Tested compounds were dissolved in DMSO and diluted in a twofold manner with RPMI 1640 medium, with glutamine and 2% glucose, buffered to pH 7.0 with MOPS (3-morpholinopropane-1-sulfonic acid). The final concentration of DMSO in the testing […]
Static incubation was performed in the dark and in humid atmosphere, at 35±2 °C, for 24 and 48 h (72 and 120 h for Trichophyton interdigitale respectively). Positive controls consisted of test microbe solely, while negative controls consisted of cultivation medium and DMSO. Visual inspection and metabolic activity indicator, Alamar Blue (ThermoFisher Scientific), were used for MIC endpoint evaluation. The internal quality standards, amphotericin B (Sigma-Aldrich) and voriconazole (Toronto research Chemicals, CA) were involved in assays (for MIC of standards see Table S5). All experiments were conducted in duplicates.
For the results to be valid, the difference in MIC for one compound determined from two parallel measurements must not be greater than one step on the dilution scale.

[11] = tested on: Lichtheimia corymbifera CCM 8077; assay: Antifungal microdilution broth method, LC; type: cell-based; conditions: CCM8077, 48 h, read-out: MIC LC
[12] = tested on: Trichophyton interdigitale CCM 8377 (ATCC 9533); assay: Antifungal microdilution broth method, TI; type: cell-based; conditions: 48 h, read-out: MIC TI
[13] = tested on: Klebsiella pneumoniae CCM 4415 (ATCC 10031); assay: Antibacterial microdilution broth method, KP; conditions: read after 24 h of incubation
[14] = pH 6.6, read-out: MIC Mtb H37Ra
[15] = pH 6, calculated from µg/mL, read-out: MIC Mtb H37Ra
[16] = Mycolicibacterium smegmatis, pH 6, read-out: MIC M. smegmatis µg/mL
[17] = Mycolicibacterium smegmatis, pH 6.6, read-out: MIC M. smegmatis
[18] = Mycolicibacterium aurum, pH 6, read-out: MIC M. aurum µg/mL
[19] = Mycolicibacterium aurum, pH 6.6, read-out: MIC M. aurum

COC(=O)C(CC(C)C)NC(=O)c1cnc(Cl)cn1 (stereo not drawn)
MIC Mtb H37Ra ([1]; pH 6): 3.91 µg/mL (≈ 13.7 µM)
MIC Mtb H37Ra ([1]; pH 6.6): 62.5 µg/mL (≈ 219 µM)

COC(=O)[C@H](C)NC(=O)c1cnccn1 (racemic) [PC-DL-Ala-Me, methyl (pyrazine-2-carbonyl)alaninate]
MIC ([1]; pH 6): ≥ 125 µg/mL
MIC ([1]; pH 6, read-out: MIC Mtb H37Ra): ≥ 125 µg/mL
MIC [1, 14]: ≥ 500 µg/mL
MIC [1, 15]: ≥ 598 µM
MIC [2, 16]: ≥ 125 µg/mL
MIC [2, 17]: ≥ 500 µg/mL
MIC [3, 18]: ≥ 125 µg/mL
MIC [3, 19]: ≥ 500 µg/mL
MIC [4]: > 500 µM
MIC [5]: > 500 µM
MIC [6]: 250 µM (≈ 52.3 µg/mL)
MIC [7]: > 500 µM
MIC [8]: > 500 µM
MIC [9]: > 500 µM
MIC [10]: > 500 µM
MIC [11]: > 500 µM
MIC [12]: > 500 µM
MIC KP [13]: > 500 µM

O=C(O)c1cn(C2CC2)c2cc(N3CCNCC3)c(F)cc2c1=O [CPX, ciprofloxacin, reference compound]
MIC ([1]; pH 6, read-out: MIC Mtb H37Ra): 0.25 µg/mL
MIC [1, 14]: 0.125 to 0.25 µg/mL
MIC [1, 15]: 0.75 µM
MIC ([2]; Mycolicibacterium smegmatis, pH 6; read-out: MIC M. smegmatis): 0.0625 to 0.25 µg/mL (≈ 0.189 to 0.754 µM)
MIC ([2]; Mycolicibacterium smegmatis, pH 6.6; read-out: MIC M. smegmatis): 0.0625 to 0.125 µg/mL (≈ 0.189 to 0.377 µM)
MIC ([3]; Mycolicibacterium aurum, pH 6; read-out: MIC M. aurum): 0.0625 µg/mL (≈ 0.189 µM)
MIC ([3]; Mycolicibacterium aurum, pH 6.6; read-out: MIC M. aurum): 0.0078 to 0.0156 µg/mL (≈ 0.0235 to 0.0471 µM)

CCOC(=O)[C@@H](C)NC(=O)c1cnccn1 [PC-D-Ala-Et, ethyl (pyrazine-2-carbonyl)-D-alaninate]
MIC ([1]; pH 6): ≥ 125 µg/mL
MIC ([1]; pH 6, read-out: MIC Mtb H37Ra): ≥ 125 µg/mL
MIC [1, 14]: ≥ 500 µg/mL
MIC [1, 15]: ≥ 560 µM
MIC [2, 16]: ≥ 125 µg/mL
MIC [2, 17]: ≥ 500 µg/mL
MIC [3, 18]: ≥ 125 µg/mL
MIC [3, 19]: ≥ 500 µg/mL
MIC [4]: > 500 µM
MIC [5]: > 500 µM
MIC [6]: > 500 µM
MIC [7]: > 500 µM
MIC [8]: > 500 µM
MIC [9]: > 500 µM
MIC [10]: > 500 µM
MIC [11]: > 500 µM
MIC [12]: > 500 µM
MIC KP [13]: > 500 µM

COC(=O)CC[C@@H](NC(=O)c1cnccn1)C(=O)OC [PC-D-Glu-diMe, dimethyl (pyrazine-2-carbonyl)-D-glutamate]
MIC ([1]; pH 6): ≥ 500 µg/mL
MIC ([1]; pH 6, read-out: MIC Mtb H37Ra): ≥ 500 µg/mL
MIC [1, 14]: ≥ 500 µg/mL
MIC [1, 15]: ≥ 1780 µM
MIC [2, 16]: ≥ 500 µg/mL
MIC [2, 17]: ≥ 500 µg/mL
MIC [3, 18]: ≥ 500 µg/mL
MIC [3, 19]: ≥ 500 µg/mL
MIC [4]: > 500 µM
MIC [5]: > 500 µM
MIC [6]: > 500 µM
MIC [7]: > 500 µM
MIC [8]: > 500 µM
MIC [9]: > 500 µM
MIC [10]: > 500 µM
MIC [11]: > 500 µM
MIC [12]: > 500 µM
MIC KP [13]: > 500 µM
